Data as given in ChEMBL document CHEMBL5465560, “Selectivity Literature for EUbOPEN Chemogenomic Library” (2024).

Experiments:
[1] = target: T1, Serine/threonine-protein kinase greatwall (Homo sapiens) (UniProt Q96GX5); test: Selectivity interaction (ActivX KiNativ screen (kinase selectivity in THP-1 cell lysates)) EUB0000639a MASTL; assay type: subcellular; settings: lysate, at 0.2 µM
T1 sequence (whole entry): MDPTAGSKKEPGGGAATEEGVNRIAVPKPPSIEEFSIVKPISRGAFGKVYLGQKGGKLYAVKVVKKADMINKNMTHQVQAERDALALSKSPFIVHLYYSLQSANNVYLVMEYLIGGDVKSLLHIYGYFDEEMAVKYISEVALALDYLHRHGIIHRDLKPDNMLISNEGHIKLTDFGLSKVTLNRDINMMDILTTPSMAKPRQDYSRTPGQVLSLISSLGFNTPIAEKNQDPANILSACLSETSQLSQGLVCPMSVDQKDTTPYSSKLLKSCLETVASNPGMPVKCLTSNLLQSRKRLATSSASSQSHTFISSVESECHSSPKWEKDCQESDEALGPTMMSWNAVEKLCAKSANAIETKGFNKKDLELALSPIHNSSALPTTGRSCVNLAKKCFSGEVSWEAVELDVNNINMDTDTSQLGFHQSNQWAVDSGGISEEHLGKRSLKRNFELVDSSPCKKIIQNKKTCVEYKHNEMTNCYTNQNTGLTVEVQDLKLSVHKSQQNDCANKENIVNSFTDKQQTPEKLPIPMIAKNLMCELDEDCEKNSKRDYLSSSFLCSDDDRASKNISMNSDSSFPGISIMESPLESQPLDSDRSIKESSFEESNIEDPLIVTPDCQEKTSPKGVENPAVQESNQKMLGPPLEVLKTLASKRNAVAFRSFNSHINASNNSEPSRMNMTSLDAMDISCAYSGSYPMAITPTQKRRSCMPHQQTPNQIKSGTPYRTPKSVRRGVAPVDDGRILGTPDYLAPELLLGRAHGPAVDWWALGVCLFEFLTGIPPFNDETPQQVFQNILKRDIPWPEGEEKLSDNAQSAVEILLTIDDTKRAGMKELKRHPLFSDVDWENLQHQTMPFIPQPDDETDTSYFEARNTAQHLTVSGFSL

[2] = target: TRAF2 and NCK-interacting protein kinase (Homo sapiens) (UniProt Q9UKE5); test: Selectivity interaction (ActivX KiNativ screen (kinase selectivity in THP-1 cell lysates)) EUB0000639a TNIK; assay type: subcellular; settings: lysate
TRAF2 and NCK-interacting protein kinase (Homo sapiens), sequence (Q9UKE5 whole entry, looked up): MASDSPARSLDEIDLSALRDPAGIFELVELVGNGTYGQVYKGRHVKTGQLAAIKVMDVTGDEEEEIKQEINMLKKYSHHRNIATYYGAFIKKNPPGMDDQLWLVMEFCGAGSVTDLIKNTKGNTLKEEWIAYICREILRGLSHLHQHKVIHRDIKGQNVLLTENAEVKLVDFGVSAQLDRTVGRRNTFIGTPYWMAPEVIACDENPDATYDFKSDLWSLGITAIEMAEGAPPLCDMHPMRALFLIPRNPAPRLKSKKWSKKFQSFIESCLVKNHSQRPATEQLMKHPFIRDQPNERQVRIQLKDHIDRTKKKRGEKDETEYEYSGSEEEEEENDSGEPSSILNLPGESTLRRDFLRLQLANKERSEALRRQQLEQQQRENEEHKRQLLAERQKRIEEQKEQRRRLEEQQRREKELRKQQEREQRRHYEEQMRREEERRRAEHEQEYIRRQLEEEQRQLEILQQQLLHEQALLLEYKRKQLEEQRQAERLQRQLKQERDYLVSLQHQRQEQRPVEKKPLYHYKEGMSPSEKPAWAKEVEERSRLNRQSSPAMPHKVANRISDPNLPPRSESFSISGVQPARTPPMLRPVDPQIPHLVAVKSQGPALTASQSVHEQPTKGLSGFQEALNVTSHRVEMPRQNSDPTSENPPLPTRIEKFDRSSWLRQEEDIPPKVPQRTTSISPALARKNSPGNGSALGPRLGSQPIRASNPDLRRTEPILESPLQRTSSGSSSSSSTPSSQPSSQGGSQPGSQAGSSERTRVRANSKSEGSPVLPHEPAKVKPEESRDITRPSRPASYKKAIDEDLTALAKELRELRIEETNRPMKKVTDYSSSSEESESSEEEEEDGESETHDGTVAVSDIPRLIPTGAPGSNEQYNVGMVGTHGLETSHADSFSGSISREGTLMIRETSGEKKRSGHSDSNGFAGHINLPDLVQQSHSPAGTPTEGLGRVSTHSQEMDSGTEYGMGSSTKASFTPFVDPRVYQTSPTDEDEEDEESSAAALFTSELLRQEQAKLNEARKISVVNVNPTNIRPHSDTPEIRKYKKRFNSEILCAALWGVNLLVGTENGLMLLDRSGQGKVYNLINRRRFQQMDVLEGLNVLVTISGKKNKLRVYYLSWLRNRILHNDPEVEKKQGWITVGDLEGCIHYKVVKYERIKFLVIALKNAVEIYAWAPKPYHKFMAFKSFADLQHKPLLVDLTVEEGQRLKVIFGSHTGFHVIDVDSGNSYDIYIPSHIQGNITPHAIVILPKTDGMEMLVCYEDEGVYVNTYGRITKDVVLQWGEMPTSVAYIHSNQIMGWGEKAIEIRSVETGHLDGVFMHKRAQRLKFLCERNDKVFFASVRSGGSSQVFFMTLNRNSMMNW

[3] = target: High affinity nerve growth factor receptor (Homo sapiens, UniProt P04629); test: Selectivity interaction (KinomeScan (DiscoverX)) EUB0000618a NTRK1; settings: at 10 µM
High affinity nerve growth factor receptor, sequence (P04629 33-796 limits assumed): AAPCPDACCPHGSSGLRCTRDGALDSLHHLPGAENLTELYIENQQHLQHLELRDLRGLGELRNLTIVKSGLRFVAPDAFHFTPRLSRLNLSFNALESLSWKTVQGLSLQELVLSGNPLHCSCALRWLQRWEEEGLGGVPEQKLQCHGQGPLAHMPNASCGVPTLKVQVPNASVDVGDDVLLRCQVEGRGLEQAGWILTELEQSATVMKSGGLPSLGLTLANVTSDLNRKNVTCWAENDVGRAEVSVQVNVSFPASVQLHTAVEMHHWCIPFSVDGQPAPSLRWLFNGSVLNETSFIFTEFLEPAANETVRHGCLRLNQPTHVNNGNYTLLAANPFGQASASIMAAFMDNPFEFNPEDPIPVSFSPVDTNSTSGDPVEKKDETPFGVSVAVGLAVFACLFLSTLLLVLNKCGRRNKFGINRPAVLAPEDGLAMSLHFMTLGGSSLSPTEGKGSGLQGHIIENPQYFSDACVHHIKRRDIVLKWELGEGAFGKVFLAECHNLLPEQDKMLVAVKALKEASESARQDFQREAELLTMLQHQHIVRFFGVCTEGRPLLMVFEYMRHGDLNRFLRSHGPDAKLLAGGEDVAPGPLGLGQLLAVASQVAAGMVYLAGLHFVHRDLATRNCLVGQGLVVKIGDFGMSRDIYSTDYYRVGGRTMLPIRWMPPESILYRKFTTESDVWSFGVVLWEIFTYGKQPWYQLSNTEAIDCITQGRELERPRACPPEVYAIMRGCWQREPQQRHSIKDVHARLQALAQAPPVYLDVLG

[4] = target: T2, Tyrosine-protein kinase receptor TYRO3 (Homo sapiens) (UniProt Q06418); settings: at 10 µM
T2 sequence (whole entry): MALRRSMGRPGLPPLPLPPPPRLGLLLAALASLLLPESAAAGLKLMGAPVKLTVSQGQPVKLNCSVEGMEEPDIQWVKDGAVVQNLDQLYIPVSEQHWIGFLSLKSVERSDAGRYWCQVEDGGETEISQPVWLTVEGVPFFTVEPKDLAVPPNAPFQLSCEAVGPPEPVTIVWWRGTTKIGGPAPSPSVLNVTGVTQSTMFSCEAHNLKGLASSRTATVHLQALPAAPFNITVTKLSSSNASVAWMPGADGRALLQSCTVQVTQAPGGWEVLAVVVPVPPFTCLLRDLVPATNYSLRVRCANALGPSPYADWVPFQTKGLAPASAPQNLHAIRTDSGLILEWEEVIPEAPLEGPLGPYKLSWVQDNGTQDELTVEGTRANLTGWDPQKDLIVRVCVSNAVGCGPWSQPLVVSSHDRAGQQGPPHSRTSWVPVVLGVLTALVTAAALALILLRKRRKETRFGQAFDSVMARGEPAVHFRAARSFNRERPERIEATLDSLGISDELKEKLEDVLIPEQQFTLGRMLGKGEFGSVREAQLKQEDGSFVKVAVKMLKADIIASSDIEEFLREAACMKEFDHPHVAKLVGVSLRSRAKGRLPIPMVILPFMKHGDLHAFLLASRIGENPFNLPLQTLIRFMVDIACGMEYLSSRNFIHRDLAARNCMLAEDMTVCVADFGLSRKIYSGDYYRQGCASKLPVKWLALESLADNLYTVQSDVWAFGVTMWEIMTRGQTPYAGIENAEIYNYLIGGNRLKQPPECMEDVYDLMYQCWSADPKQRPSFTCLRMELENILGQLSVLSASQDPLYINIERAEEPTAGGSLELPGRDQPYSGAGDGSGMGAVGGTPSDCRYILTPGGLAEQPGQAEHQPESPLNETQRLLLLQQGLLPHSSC

[5] = target: Bone morphogenetic protein receptor type-1A (Homo sapiens, UniProt P36894); test: Selectivity interaction (ProQinase) EUB0000171b BMPR1A
Bone morphogenetic protein receptor type-1A, sequence (P36894 whole entry): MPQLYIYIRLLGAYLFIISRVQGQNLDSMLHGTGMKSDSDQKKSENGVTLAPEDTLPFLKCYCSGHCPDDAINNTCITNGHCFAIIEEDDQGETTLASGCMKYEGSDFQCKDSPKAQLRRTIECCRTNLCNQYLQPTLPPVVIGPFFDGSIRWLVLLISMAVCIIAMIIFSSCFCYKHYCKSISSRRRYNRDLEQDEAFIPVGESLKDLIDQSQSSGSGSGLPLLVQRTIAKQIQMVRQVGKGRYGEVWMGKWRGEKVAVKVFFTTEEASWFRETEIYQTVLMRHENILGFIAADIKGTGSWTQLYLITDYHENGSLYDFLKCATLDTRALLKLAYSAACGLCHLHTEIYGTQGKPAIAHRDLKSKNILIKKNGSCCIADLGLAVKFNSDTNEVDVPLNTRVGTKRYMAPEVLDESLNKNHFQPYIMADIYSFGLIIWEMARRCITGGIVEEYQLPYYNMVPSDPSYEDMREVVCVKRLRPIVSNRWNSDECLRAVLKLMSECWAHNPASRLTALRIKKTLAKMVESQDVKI

[6] = target: T3, Megakaryocyte-associated tyrosine-protein kinase (Homo sapiens) (UniProt P42679); test: Selectivity interaction (ProQinase) EUB0000171b MATK
T3 sequence (whole entry): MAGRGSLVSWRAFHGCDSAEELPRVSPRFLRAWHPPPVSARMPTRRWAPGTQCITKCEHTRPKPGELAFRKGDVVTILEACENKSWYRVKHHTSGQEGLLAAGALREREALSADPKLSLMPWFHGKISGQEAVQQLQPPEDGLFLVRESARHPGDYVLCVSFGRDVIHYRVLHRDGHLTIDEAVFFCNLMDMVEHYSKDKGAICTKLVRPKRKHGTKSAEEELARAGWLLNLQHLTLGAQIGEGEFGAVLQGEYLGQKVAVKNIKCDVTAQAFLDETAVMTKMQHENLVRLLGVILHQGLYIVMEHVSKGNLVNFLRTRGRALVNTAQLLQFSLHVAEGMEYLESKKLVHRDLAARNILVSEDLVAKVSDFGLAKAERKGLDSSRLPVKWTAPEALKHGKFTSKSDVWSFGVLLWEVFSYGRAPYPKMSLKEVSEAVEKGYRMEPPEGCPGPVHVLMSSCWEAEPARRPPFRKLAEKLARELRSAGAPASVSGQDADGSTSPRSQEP

CC[C@@H]1[C@H](F)C(=O)N[C@@H]1COc1nccc2cc(C(N)=O)c(OC)cc12 [ZIMLOVISERTIB]
% of inhibition [1]: 16.4% | % of inhibition ([2]; at 0.01 µM): -2.8% | % of inhibition ([2]; at 0.04 µM): -2.7% | % of inhibition ([2]; at 0.2 µM): -20.6% | % of inhibition ([2]; at 1 µM): -28.3% | % of inhibition ([2]; at 5 µM): 16.1%

O[C@H]1CC[C@H](Nc2ncc3nc(Nc4c(F)cc(F)cc4F)n([C@H]4CCOC4)c3n2)CC1
% of control [3]: 75%

Cc1cc([C@@H](C)Nc2ccccc2C(=O)O)c2nc(N3CCOCC3)cc(=O)n2c1 [AZD-6482]
% of control [4]: 100%

C=CC(=O)Nc1cccc(C(=O)Nc2ccc(Nc3cc(-c4[nH]c(SC)nc4C)ccn3)cc2)c1
% of control ([5]; at 1 µM): 83% | % of control ([5]; at 5 µM): 88% | % of control ([6]; at 1 µM): 92% | % of control ([6]; at 5 µM): 111%
